Assay results taken from PMC12718374, “Structural basis and evolutionary pathways of glycerol-1-phosphate transport in marine bacteria” (Proceedings of the National Academy of Sciences of the …, 2025).

Key:
[1] = system: GpxB^DSM11874 alanine mutants (Tyr138, His199, Thr247, Arg223); assay: MST binding affinity assay of site-directed alanine mutants of GpxB^DSM11874; design: species or system Marinobacter sp. DSM11874; details: alanine mutants of Tyr138, His199, Thr247, Arg223 versus wild-type GpxB^DSM11874
Method: (§1) The binding affinity of the purified proteins to G1P and other structurally related chemicals was measured using a Monolith NT.115 (NanoTemper Technologies, Munich, Germany). Proteins (160 nM) were labeled in assay buffer (PBS containing 0.05% (v/v) Tween-20) using the Protein Labelling Kit RED-Tris-NTA (NanoTemper Technologies). For binding assays, the buffer was replaced by 20 mM HEPES pH 7.4, 100 mM NaCl, 0.05% (v/v) Tween-20. Each chemical was prepared by serial dilution in the same assay buffer and mixed with the same volume of labeled protein (at a final concentration of 80 nM). The mixture was then loaded onto Monolith™ NT.115 Series capillaries (NanoTemper Technologies, Germany) and thermophoresis was measured at 22 °C using 60% excitation power and medium MST power. Data were analyzed using MO. Affinity Analysis v2.3 software (NanoTemper Technologies).
(§2) The full-length codon optimized GpxB (MED193_19449) of Phaeobacter sp. MED193 (WP_009811375.1), and four GpxB homologs (Marinobacter sp. DSM11874, MBB6025290.1; S. pseudonitzschiae DSM26824, WP_037914517.1; Sulfitobacter sp. EE-36, WP_005852758.1; S. geojensis sp. EhN01, WP_064222091.1) were chemically synthesized by Beijing Tsingke Biotech Co., Ltd. (China), and subcloned into pET-22b (Novagen, America) with a C-terminal His-tag. An N-terminal signal peptide truncated [residues 1−22 predicted by SignalP 5.0 Server ([36])] […]

Phaeobacter sp. MED193 = assay: Growth on substrate as the sole C source, wild type; format: cell-based; details: defined artificial seawater medium, 5 mM substrate
Method: (§3) Phaeobacter sp. MED193 and its mutant strains were routinely maintained on 1.5% (w/v) Difco marine broth 2216 agar with antibiotics as appropriate. To test the growth of Phaeobacter sp. MED193 on G1P/G3P, cells were first cultivated in 5 mL marine broth medium overnight at 30 °C with shaking at 150 rpm. A 1% (v/v) inoculum was then transferred to defined artificial seawater medium supplemented with 50 µM phosphate ([6]). After 24 h growth, 12.5 mL cultures were collected by centrifugation and inoculated into 100 mL artificial seawater medium. Subsequently, either G1P or G3P (purchased from Sigma-Aldrich, St. Louis, USA) was added to a final concentration of 5 mM as the sole C source. Cells (40 mL) were harvested after 48 h and used for proteomics.

[2] = system: Phaeobacter sp. MED193 ∆ugpB∆gpxB double mutant; assay: Growth on substrate as the sole carbon source, ∆ugpB∆gpxB double mutant; format: cell-based; details: 5 mM substrate
Method: as §3
The gpxBugpB double mutant was generated using a conjugation protocol as described previously ([35]). First, two homologous regions of an upstream and a downstream fragment flanking the gpxB gene were cloned into suicide plasmid pK18mobsacB, together with a spectinomycin (Spec) resistance cassette which was inserted in between the upstream and downstream fragments. The resulting plasmid was then mobilized into Phaeobacter sp. MED193 using E. coli S17.1 lambda pir and transconjugants selected on marine broth MB agar containing Spec (200 µg mL^−1). […] The same protocol was repeated to generate the gpxBugpB double mutant in the gpxB single mutant background, except that a Gentamycin (Gm) resistant cassette was inserted in between the upstream and downstream fragments of ugpB into pK18mobsacB. All primers, plasmids, and bacterial strains used are listed in SI Appendix, Table S6.

[3] = target: GpxB^DSM11874 (GpxB homolog from Marinobacter sp. DSM11874) (Marinobacter sp. DSM 11874, UniProt Z9YUV0DEE1); assay: MST binding affinity assay, purified GpxB^DSM11874; details: 22 °C, GpxB^DSM11874 of Marinobacter sp. DSM11874
Chain of GpxB^DSM11874 (GpxB homolog from Marinobacter sp. DSM11874) (Z9YUV0DEE1 21-315 limits assumed): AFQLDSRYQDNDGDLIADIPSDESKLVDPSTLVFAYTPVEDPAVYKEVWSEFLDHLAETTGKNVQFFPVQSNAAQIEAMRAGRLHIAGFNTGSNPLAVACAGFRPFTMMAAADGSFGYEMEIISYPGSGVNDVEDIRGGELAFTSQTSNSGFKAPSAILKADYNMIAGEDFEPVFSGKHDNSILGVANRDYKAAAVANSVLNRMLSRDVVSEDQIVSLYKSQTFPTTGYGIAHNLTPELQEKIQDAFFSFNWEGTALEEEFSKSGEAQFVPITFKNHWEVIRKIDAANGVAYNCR
Method: as §1, §2

[4] = target: GpxB from Sulfitobacter sp. EE-36; assay: MST binding affinity assay, purified GpxB from Sulfitobacter sp. EE-36; details: GpxB of Sulfitobacter sp. EE-36
Method: as §1, §2

[5] = target: GpxB from Sulfitobacter pseudonitzschiae DSM26824; assay: MST binding affinity assay, purified GpxB from Sulfitobacter pseudonitzschiae DSM26824; details: GpxB of Sulfitobacter pseudonitzschiae DSM26824
Method: as §1, §2

[6] = target: GpxB from Sulfitobacter geojensis EhN01; assay: MST binding affinity assay, purified GpxB from Sulfitobacter geojensis EhN01; details: GpxB of Sulfitobacter geojensis EhN01
Method: as §1, §2

[7] = target: Phaeobacter sp. MED193 GpxB (MED193_19449) (Roseobacter sp. MED193, UniProt A3X5C8); assay: Microscale thermophoresis (MST) binding affinity assay, purified recombinant GpxB; details: 22 °C, 20 mM HEPES pH 7.4, 100 mM NaCl, recombinant GpxB of Phaeobacter sp. MED193
Chain of Phaeobacter sp. MED193 GpxB (MED193_19449) (A3X5C8 1-326 limits assumed): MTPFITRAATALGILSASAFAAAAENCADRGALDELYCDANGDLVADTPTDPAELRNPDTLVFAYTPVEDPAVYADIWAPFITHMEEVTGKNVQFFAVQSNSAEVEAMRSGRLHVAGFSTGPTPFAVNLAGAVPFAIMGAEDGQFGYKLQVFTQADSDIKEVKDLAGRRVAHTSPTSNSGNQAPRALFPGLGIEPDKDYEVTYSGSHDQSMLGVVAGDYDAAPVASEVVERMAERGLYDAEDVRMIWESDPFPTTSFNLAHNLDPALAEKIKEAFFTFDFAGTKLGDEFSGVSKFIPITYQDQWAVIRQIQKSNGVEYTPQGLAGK
Method: as §1, §2

[8] = target: Phaeobacter sp. MED193 UgpB (MED193_07903) (Phaeobacter sp. MED193 (Roseobacter sp. MED193), UniProt Z9VP90JAR2); assay: MST binding affinity assay, purified recombinant UgpB; details: 22 °C, 20 mM HEPES pH 7.4, 100 mM NaCl, recombinant UgpB of Phaeobacter sp. MED193
Chain of Phaeobacter sp. MED193 UgpB (MED193_07903) (Z9VP90JAR2 43-453 limits assumed): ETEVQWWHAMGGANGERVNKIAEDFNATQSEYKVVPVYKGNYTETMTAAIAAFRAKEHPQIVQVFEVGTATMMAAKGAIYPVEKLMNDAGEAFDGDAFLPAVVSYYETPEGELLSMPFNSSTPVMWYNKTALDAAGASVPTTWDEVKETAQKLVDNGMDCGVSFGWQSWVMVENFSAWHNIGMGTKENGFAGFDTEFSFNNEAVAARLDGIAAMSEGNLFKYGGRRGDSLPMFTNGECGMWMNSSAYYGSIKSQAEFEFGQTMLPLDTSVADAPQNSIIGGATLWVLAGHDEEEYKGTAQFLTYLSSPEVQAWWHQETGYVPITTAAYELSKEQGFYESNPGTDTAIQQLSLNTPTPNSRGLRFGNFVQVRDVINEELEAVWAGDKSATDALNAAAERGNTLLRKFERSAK
Method: as §1, §2

SMILES	reduction in binding affinity of alanine mutants [1]	growth on the substance as the sole C source (Phaeobacter sp. MED193)	growth on the substance as the sole carbon source [2]	Kd [3] [nM]	binding affinity [4]	binding affinity [5]	binding affinity [6]	Kd [7] [nM]	Kd [8] [nM]
O=P(O)(O)OC[C@@H](O)CO [G1P, sn-glycerol-1-phosphate]	10- to 100 fold	grows	unable to grow	1720 ± 280	low-µM	low-µM	low-µM	2480 ± 140	2360 ± 350
O=P(O)(O)OC[C@H](O)CO [G3P, sn-glycerol-3-phosphate]	–	grows	unable to grow	1060 ± 150	low-µM	low-µM	low-µM	1020 ± 140	800 ± 260
OCC(O)CO [glycerol]	–	grows	unaffected	–	–	–	–	–	–
